The term IC50 denotes the point on the concentration scale where inhibition reaches its midpoint. Read a high IC50 as lower potency.

The nature of data set [1]: DLS particle size distribution in Tris-HCl buffer. Particulars: 20 μM. Type of data set: physicochemical. From the text:
Given the amphiphilic nature of the complexes, with the functionalized phenanthroline ligand serving as a lipophilic tail and the Ru(II) core serving as a hydrophilic headgroup, it was of interest to investigate the potential tendency of the complexes to form micelle-like aggregates in aqueous solutions. […] Our focus was to investigate the aggregation behavior in a purely aqueous environment, without the use of cosolvents such as DMSO. Since complexes 5–7 could not be solubilized under these conditions, they were not included in the DLS analysis.
The particle size distribution of the complexes was determined by dynamic light scattering (DLS) using a Particle Analyzer Litesizer 500 (Anton Paar, Austria) at 25 °C. 20 μM solutions of complexes 1–4 and of [Ru(bpy)3]-Cl2 in Tris-HCl buffer, as well as 20 μM solutions of complexes 1–4 in Gibco DMEM (Dulbecco’s Modified Eagle Medium with high glucose, L-glutamine, pyruvate, 10% FBS, and without phenol red), were analyzed by DLS. The experiments were performed in triplicate, yielding similar results.

Data set [2] in a line: UV-vis absorption, emission spectra and luminescence quantum yield. Type of data set: physicochemical. Particulars: for Φ (luminescence quantum yield): air-equilibrated; for λem: excitation 450 nm. On the procedure: We studied the absorption and emission properties of the complexes in different solvents including MeCN, MeOH, and Tris-HCl aqueous buffer (0.05 M, pH 7.4). Due to solubility limitations, only complexes 1–4 were studied in Tris-HCl aqueous buffer. Indicatively, the comparative UV–vis absorption and emission spectra of complexes 4 and 7 in MeCN at 298 K are presented in Figure e.
The photophysical data are summarized in Tables and , and all measurements were conducted in air-equilibrated solvents.
(§1) ^1H, ^1H–^1H COSY, and ^13C NMR spectra were recorded on a 500 MHz NMR spectrometer (Agilent). Absorption spectra were acquired by using a JASCO V-750 spectrophotometer. For recording the emission spectra, we used an Edinburgh Instruments FS5 spectrofluorometer equipped with a red-sensitive Hamamatsu R13456 photomultiplier tube (PMT) and a 150 W xenon arc lamp as the light source. All spectra were corrected for detector response using the correction files and software (Fluoracle) provided by the manufacturer. The luminescence quantum yields of the complexes were calculated using the optically dilute method with an air-equilibrated aqueous solution of [Ru(bpy)3]-Cl2 (Φem = 0.049, λex = 436 nm) as the standard solution. , Emission lifetime measurements were performed using an Edinburgh Instruments mini-τ lifetime spectrometer with a bandpass filter (±40 nm bandpass) at 650 nm. The excitation source was an Edinburgh Instruments picosecond pulsed LED (EPLED-320) with a peak wavelength of 326.8 nm and a pulse width of 910 ps. The detector was a thermoelectrically cooled, high-speed, red-sensitive photomultiplier tube (Hamamatsu H10720-01). The data were analyzed by using the software provided by the manufacturer (Fluoracle). For emission lifetime calculations, the experiments were performed in triplicate, yielding similar results. The MS spectra were acquired using an LC20AD Shimadzu connected to Shimadzu LCMS-2010EV, with a flow rate of 0.4 mL/min MeOH or MeCN + 0.1% formic acid. LCMS analysis was carried out on an Agilent 1260 Infinity with a Raptor C18 column (50 mm × 2.1 mm, 2.7 μm particle size). A two-minute gradient from 5% to 95% MeCN in water was used, supplemented with 0.1% formic acid.

Data set [3] can be described thus: Emission lifetime (time-resolved luminescence decay). Type of data set: physicochemical. On the procedure:
Given the changes in the aggregation profiles of the complexes in cell culture medium containing FBS, as observed by DLS analysis, we also examined their emission lifetimes under these conditions (Table and Figure S52F–J). For this analysis, an 80 μM solution of each complex was utilized to achieve an improved signal-to-background ratio. […] However, the emission decay behavior of complexes 2–4 differs markedly from that of the estrogen-free control and from that of [Ru(bpy)3]^2+. In a cell culture medium with 10% FBS, the decay profile of complex 1 can be fitted to a biexponential model, comprising a short-lived component (355 ns, 6.6% contribution), consistent with the monomeric species, and a long-lived component (672 ns, 93.4% contribution) attributable to the aggregated form. […] Consistent with the behavior observed in Tris-HCl buffer, the addition of MeCN to a solution of complex 3 in FBS-containing medium led to aggregate disruption once the MeCN content reached 30%, as evidenced by a decrease in emission lifetime to 436 ns, signaling the dominance of the nonaggregated form (Figure f). Overall, our findings collectively confirm that aggregation correlates with the observed emission enhancement in aqueous solutions and that complexes 1–4 predominantly exist as self-assembled micelle-like aggregates in the cell culture medium used for our cellular studies. Nevertheless, it cannot be unequivocally determined from these experiments whether the complexes preserve their aggregated form in the intracellular environment.
as §1

The test system of data set [4] is MCF-7 (ER+) cells. Briefly: MTS viability assay (dark and 457 nm light) in MCF-7. Type of data set: cell-based. Particulars: for IC50: MCF-7, 457 nm for 12 min at 6 h, 24 h incubation, MTS; for SI = selectivity index, [IC50(ER‑)]light/[IC50(ER+)]light: MDA-MB-453 (ER-) vs MCF-7 (ER+). (In general: Tetrazolium dyes change colour on reduction, which living cells bring about.)
Description: (§2) We determined the cytotoxicity of all the complexes using the well-established MTS assay against two breast cancer cell lines: MCF-7, which is ER+, and MDA-MB-453, which is ER-.
(§3) In this experiment, the cells were irradiated with blue light (457 nm) for 12 min.
(§4) MDA-MB-453 and MCF-7 cells were grown in high-glucose Dulbecco’s Modified Eagle Medium (DMEM) containing 10% fetal bovine serum at 37 °C with 5% CO2 in humidified air.
(§5) For viability experiments, cells were seeded at a density of 20,000 cells per well in Greiner-Bio black μClear plates. After 24 h, the corresponding ruthenium complexes were added at the appropriate concentrations (30 nM to 100 μM for complexes 1-4 and 30 nM to 20 μM for 5–7, < 1% DMSO) and allowed to incubate. For the phototoxicity experiments, the plate was removed at the six-hour time point and irradiated for 12 min using a Lumidox 457 nm 96-LED array set to 8 mA (2 mW/cm^2, a total of 1.2 J/s). After an overall 24 h incubation period, the media were replaced with fresh media containing an MTS/PMS mixture as per the Promega protocol (MTS: 3-(4,5-dimethylthiazol-2-yl)-5-(3-carboxymethoxyphenyl)-2-(4-sulfophenyl)-2H-tetrazolium; PMS: phenazine methosulfate). After an additional 4 h had passed, the absorbance at 490 nm (MTS) and 635 nm (background) was measured. Cell viability was calculated from the dose-response curve of the absorbance (MTS – background).

The test system of a further data set is MDA-MB-453 (ER-) cells. Briefly: MTS viability assay (dark and 457 nm light) in MDA-MB-453. Type of data set: cell-based. To be noted: MDA-MB-453, 457 nm for 12 min at 6 h, 24 h incubation.
On the set-up of data set [5]: method as in doi:10.1021/ja00432a028. Particulars: H2O; cited from earlier work.
For data set [6] the following is noted: in water; literature value, reference number not given; cited from earlier work.
Data set [7] concerns MCF-7 (ER+) and MDA-MB-453 (ER−) cells. Briefly: Cellular uptake of ruthenium by ICP-MS. Type of data set: cell-based. Particulars: 20 μM, 6 h, MCF-7 vs MDA-MB-453. The procedure:
Thus, the cellular uptake of complexes 3 and 4 was evaluated and compared to the control complex 1 in ER+ (MCF-7) and ER– (MDA-MB-453) cell lines using inductively coupled plasma mass spectrometry (ICP-MS) (Figure b). […] This trend is consistent with its increased lipophilicity and the brighter red luminescence observed by microscopy for this complex. It is well established that lipophilicity can enhance membrane permeability and cellular internalization.
Cells were seeded at the appropriate density in 6-well plates (1 × 10^6 cells per well for MDA-MB-453 and 400,000 cells per well for MCF-7) and allowed to adhere for 24 h. Ruthenium complexes were added to the wells by direct dilution of a 10 mM DMSO stock solution to yield a final concentration of 20 μM in culture medium. After 6 h of incubation, the medium was removed, and the cells were washed three times with phosphate-buffered saline (PBS) to eliminate extracellular ruthenium. Cells were subsequently detached using trypsin, collected by centrifugation, and counted. […] The monitored isotope was 101Ru. A set of ruthenium calibration standards was used to establish and model the linear relationship between signal and concentration before the samples were injected, signal measured, and averaged across three consecutive signal acquisitions. The amount of metal detected in the cell samples was normalized to ppb per 1,000,000 cells.

For data set [8], the system named is MCF-7 (ER+) cells. Briefly: Luminescence microscopy of treated ER+ cells. Type of data set: cell-based. Particulars: Figure S62, 6 h incubation. The procedure:
3 Microscopy imaging of cells incubated with complex 3 (20 μΜ) and complex 4 (10 μΜ) for 6 h: brightfield (left), photosensitizer luminescence (middle), and overlaid (right) images. (b) Cellular uptake by ICP-MS of complexes 1, 3, and 4 (20 μM, 6 h) in MCF-7 (ER+) and MDA-MB-453 (ER−) cells.
For imaging experiments, cells were seeded at a density of 20,000 cells per well in Greiner-Bio black μClear plates. After 24 h, the corresponding ruthenium complexes were added at the appropriate concentrations. After 6 h, the cells were washed 3 times with media, and the media were replaced with phenol-red-free media. Compounds were imaged on an Eclipse-Ti2 Widefield system (Nikon), equipped with a Prime 95B sCMOS camera (Teledyne), pE-400 LED light source (CoolLED), a 20× or 40× objective, and emission filters for green (515/30 nm), orange (600/50 nm), red (641/75 nm), and far-red (705/72 nm). The bright-field channel was used to autofocus each well, after which the complexes were excited using a 450 nm laser and the red emission channel collected.

Where [9] appears, read: Tris-HCl buffer (0.05 M, pH 7.4), 298 K.
[10] abbreviates: Tris-HCl buffer (0.05 M, pH 7.4).
The mark [11] stands for this setting: cell culture medium (DMEM, 10% FBS, no phenol red), 80 μM.
Where [12] appears, read: cell culture medium with 10% FBS, biexponential fit.

Like-named read-outs stand apart in the source and are kept apart here.

Description for MDA-MB-453 (ER-) cells: as §2, §3, §4, §5

Consider `[Cl][Ru][Cl].c1ccc(-c2ccccn2)nc1.c1ccc(-c2ccccn2)nc1.c1ccc(-c2ccccn2)nc1` [[Ru(bpy)3]Cl2, reference compound], for which the “aggregate size (DLS, particle size distribution by intensity)” value in [1] is on record as “no visible aggregates were observed”. For the same compound, the “Φ (luminescence quantum yield)” value in [2] (MeCN (298 K)) is on record as 1.6%; in [5], 4.9^55%. The compound also displayed a λabs in data set [2] (setting [9]) of 453 nm. For the same compound, the λem in data set [2] (setting [9]) was 630 nm. In addition, the τ1 in data set [3] (MeCN) turned out to be 156 ns; in data set [3] (MeOH) it was 205 ns; in data set [3] (setting [10]), 329 ns; in data set [3] (setting [11]), 357 ns. For the same compound, the 50% inhibitory concentration (IC50) in the data set with MCF-7 (ER+) cells [4] and with MDA-MB-453 (ER-) cells was > 100 µM throughout. Also, in the data set with MCF-7 (ER+) cells [4], the “SI = selectivity index, [IC50(ER‑)]light/[IC50(ER+)]light” value is “NPD ^b”. In addition, the “1O2 quantum yield (ΦΔ)” value in [6] is reported as 0.41.

As for `CCCCc1cn(-c2cc3cccnc3c3ncccc23)nn1.[Cl-].[Cl-].[Ru+2].c1ccc(-c2ccccn2)nc1.c1ccc(-c2ccccn2)nc1` [Complex 1, [Ru(bpy)2(L-1a)]Cl2], in data set [1], the “aggregate size (DLS, particle size distribution by intensity)” value is given as “around 100 nm”. Also, in data set [2] (MeCN (298 K)), the ε was 1.2 × 10^4 M^–1 cm^–1, the λabs is given as 450 nm, the “Φ (luminescence quantum yield)” value came out at 2.1% and the λem amounted to 625 nm. Moreover, in [2] (setting [9]), the ε was 1.1 × 10^4 M^–1 cm^–1, the λabs is 449 nm, the “Φ (luminescence quantum yield)” value amounted to 5.6% and the λem was determined as 635 nm. The compound further yielded a τ1 in [3] (MeCN) of 165 ns. The compound also showed a τ1 in data set [3] (MeOH) of 225 ns. The compound also showed a τ1 in [3] (setting [10]) of 599 ns. For the same compound, in data set [3] (Tris-HCl buffer, biexponential fit), the “contribution of τ1 (short-lived component) to the decay” value is recorded as “less than 1%”. Besides, in data set [3] (setting [11]), the τ1 is recorded as 355 ns and the τ2 came out at 672 ns. In addition, in [3] (setting [12]), the “contribution of τ1 to the decay” value worked out at 6.6% and the “contribution of τ2 to the decay” value came out at 93.4%. In the data set on MCF-7 (ER+) cells [4], the concentration for half-maximal inhibition (IC50) is > 100 µM and the “SI = selectivity index, [IC50(ER‑)]light/[IC50(ER+)]light” value was “NPD ^b”. Also, the concentration for half-maximal inhibition (IC50) in the data set on MDA-MB-453 (ER-) cells is > 100 µM. For the same compound, in data set [7], the “uptake in ER+ cells compared to ER– cells (ICP-MS)” value was “slightly higher accumulation in ER– cells than in ER+ cells”. Further, the “intracellular luminescence, ER+ versus ER– cells (microscopy)” value in the data set with MCF-7 (ER+) cells [8] is “no notable difference in luminescence between the two cell lines”.
